Test results published in patent US20190224260A1, “Metabolic Syndrome Inhibitor” (J-OIL MILLS, INC., priority 2016, published 2019).

Test system: rat primary visceral fat cells
Assay: Cell test: fat droplet area (Oil Red O staining) in visceral fat cells
Type: cell-based
Details: test solution in DMSO diluted 1000-fold with medium; cultured 2+2 days; vs control group (DMSO); FIG. 15, p 0.01 or less
Procedure: 100 μL of dimethylsulfoxide (DMSO) was added to 4.147 mg of unsaponifiable matter, or 259.65 μL of dimethylsulfoxide (DMSO) was added to 1.0716 mg of the avenasterol fraction, and which was sonicated for 1 minute to obtain a test solution. The test solution of the unsaponifiable matter (avenasterol concentration: 1.41 mg/ml) was referred to as an unsaponifiable matter group, and the test solution of the avenasterol (avenasterol concentration: 3.60 mg/ml) was referred to as an avenasterol fraction group. Furthermore, a DMSO without the unsaponifiable matter nor the avenasterol fraction (control group) was prepared. Each test solution in each group was diluted 1000-fold with a medium described in the following “Cell test”, and sonicated for 1 minute to obtain a medium with the test solution. […]
The medium was removed, and the inside of the well was washed with 0.5 mL of phosphate buffered saline (PBS). […] The cells were microscopically observed at a magnification of 200 times, and visceral fat cells with stained fat droplets were recorded as images on a recording device of a computer.
Area values of the lipid droplets stained with the Oil Red O on the above-described images were measured using the image processing software ImageJ (1.48 v) (obtained from https://imagej.nih.gov/ij/). The cell test was carried out three times, and four images were recorded in each group for each cell test. […]

**Q.** Avenasterol was tested. Which “fat accumulation in the fat cell (relative area value of fat droplets)” value did it give?
**A.** significantly inhibited
